Test systems include HOP-18 NSCLC; M19-MEL melanoma; SNB-78 CNS; RXF-631 renal; DMS 114 small cell lung; DLD-1 colon; XF 498 CNS; BT-549 breast; NCI/ADR-RES ovarian.
Common to all, as to experiment: growth of human tumour cells (NCI), 48 h

Converted amounts (≈) assume the structure as drawn. “And” between values parts separate entries of the source, which are not always exact repeats. Equal values may be shown once.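 Assay format: 96-well plates, 48-hour exposure. GI50 is the concentration that inhibits growth by half. TGI is the concentration that stops growth completely.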 The source made the active and inactive calls. No stated cut-off is given here; in the data, active means GI50 below about 0.43 µM; inactive means the rest. Some results are limits rather than exact numbers.

In the case of `COc1cc2nncc(Sc3cnnc4ccccc34)c2cc1OC`, the TGI is 37.8 µM in the assay on HOP-18 NSCLC; above 100 µM in the assay with M19-MEL melanoma; 92.4 µM in the assay with SNB-78 CNS; 53.6 µM in the assay with RXF-631 renal; above 100 µM in the assay on DMS 114 small cell lung; 49.6 µM in the assay on DLD-1 colon.

Regarding `CC12CC3(C)CC(C)(C1)CC(N=[N+]=[N-])(C2)C3`, the TGI in the assay on HOP-18 NSCLC, in the assay on XF 498 CNS, with M19-MEL melanoma, with SNB-78 CNS, in the assay on RXF-631 renal and in the assay with DMS 114 small cell lung was above 100 µM in each case. The same compound returned a TGI in the assay with DLD-1 colon above 100 µM.

With `CSc1nc2c(c(O)c(C)c(=O)n2C2OC(COC(C)=O)C(OC(C)=O)C(OC(C)=O)C2OC(C)=O)c(=O)n1C` (stereo not given), the TGI with HOP-18 NSCLC, in the assay on XF 498 CNS, in the assay with SNB-78 CNS, in the assay with RXF-631 renal, in the assay on DMS 114 small cell lung and in the assay with DLD-1 colon was above 100 µM throughout.

Turning to `Fc1cccc(Cl)c1C1SCc2nc3ccccc3n21` (stereo not given), the TGI in the assay on HOP-18 NSCLC was above 100 µM; with XF 498 CNS it was 66.1 µM; in the assay with M19-MEL melanoma, 89 µM; with SNB-78 CNS, 73.8 µM; in the assay with RXF-631 renal, above 100 µM; in the assay with DMS 114 small cell lung it was 65.6 µM. In the assay on DLD-1 colon, this compound yielded a TGI above 100 µM.

Consider `COC(=O)c1ccc2c(c1)C(NC(C)=O)CCc1cc(OC)c(OC)c(OC)c1-2` (stereo not given), for which the TGI is above 100 µM in the assay on HOP-18 NSCLC; above 100 µM with XF 498 CNS; above 100 µM in the assay with M19-MEL melanoma; 78.3 µM in the assay on BT-549 breast; above 4.64 µM with SNB-78 CNS; 3.71 µM in the assay on NCI/ADR-RES ovarian. Besides, the TGI is above 6.91 µM in the assay on RXF-631 renal, 0.0356 µM with DMS 114 small cell lung and above 100 µM in the assay on DLD-1 colon.

As for `CSc1ccc(/C=C2\CNC/C(=C\c3ccc(SC)cc3)C2=O)cc1`, the GI50 with HOP-18 NSCLC is 111 µM; with SNB-78 CNS it was 28.8 µg/mL (≈ 78.3 µM); in the assay with NCI/ADR-RES ovarian it was 150 µg/mL (≈ 408 µM); with DMS 114 small cell lung, 54.1 µg/mL (≈ 147 µM); in the assay on DLD-1 colon it was 45.1 µM and 142 µg/mL. Besides, the TGI was above 371 µM in the assay with HOP-18 NSCLC; 16.8 µM in the assay with XF 498 CNS; above 371 µM in the assay on BT-549 breast; 150 µg/mL with SNB-78 CNS; 150 µg/mL with NCI/ADR-RES ovarian; 175 µM with RXF-631 renal. Besides, the TGI is 132 µM and 150 µg/mL in the assay with DMS 114 small cell lung; > 371 µM and 150 µg/mL with DLD-1 colon. The outcome with HOP-18 NSCLC and with XF 498 CNS was inactive.

Regarding `Cc1cc(O)c2c(c1)C(O)(c1ccc3c(c1O)C(=O)c1c(O)cc(C)cc1C3(O)C1OC(CO)C(O)C(O)C1O)c1cccc(O)c1C2=O` (stereo not given), the TGI with HOP-18 NSCLC came out at 8.38 µM; with XF 498 CNS, 16.7 µM; in the assay with M19-MEL melanoma, 24.8 µM; with SNB-78 CNS it was 36.1 µM; in the assay with RXF-631 renal it was 29.5 µM; in the assay on DMS 114 small cell lung it was 22.7 µM. Moreover, in the assay with DLD-1 colon, the TGI is 23.7 µM.

Turning to `O=C(C(=O)c1ccc(Cc2ccc(C(=O)C(=O)c3ccccc3)cc2)cc1)c1ccccc1`, the TGI with HOP-18 NSCLC, with M19-MEL melanoma, in the assay with SNB-78 CNS, in the assay with RXF-631 renal, with DMS 114 small cell lung and in the assay with DLD-1 colon was above 100 µM throughout.

Turning to `COC1/C=C/OC2(C)Oc3c(C)c(O)c4c(c3C2=O)C(=O)C=C(NC(=O)/C(C)=C\C=C\C(C)C(OC=O)C(C)C(O)C(C)C(OC(C)=O)C1C)C4=O` (stereo not given), the TGI in the assay with HOP-18 NSCLC turned out to be 15.8 µM; in the assay on XF 498 CNS it was 12.8 µM; in the assay on M19-MEL melanoma, 27.6 µM; in the assay on BT-549 breast, 24 µM; in the assay with SNB-78 CNS, 44.2 µM; with NCI/ADR-RES ovarian, 49.2 µM. Further, the TGI with RXF-631 renal stood at 35.7 µM; in the assay on DMS 114 small cell lung, 34.6 µM; in the assay on DLD-1 colon, 23.3 µM.

For the compound `Cc1c(C)c2cc3c(=O)ccoc3c(C)c2oc1=O`, the TGI in the assay with HOP-18 NSCLC, with M19-MEL melanoma, in the assay with SNB-78 CNS, in the assay on RXF-631 renal and with DMS 114 small cell lung was above 100 µM each time.

Take `O=C(CCc1nc(=S)[nH][nH]1)NC12CC3CC(CC(C3)C1)C2`: the TGI in the assay on HOP-18 NSCLC, in the assay with XF 498 CNS, with M19-MEL melanoma, in the assay with SNB-78 CNS, with RXF-631 renal and with DMS 114 small cell lung was above 100 µM throughout. This compound also registered a TGI in the assay with DLD-1 colon above 100 µM.

In the case of `CCc1ccccc1NC(=O)C(=O)C(C(=O)c1ccc(OC)cc1)c1ccc(OC)cc1` (stereo not given), the TGI in the assay with HOP-18 NSCLC, in the assay on XF 498 CNS, in the assay with SNB-78 CNS, with RXF-631 renal, in the assay with DMS 114 small cell lung and with DLD-1 colon was above 100 µM throughout.

The values are drawn from PubChem BioAssay (NCI).
